Usually Kd stands for the free concentration of one partner at which half of the binding sites on the other are occupied at equilibrium, for simple one-to-one binding. Low readings indicate tighter binding, high ones weaker binding.

This passage reports Kd results from BindingDB's records for doi:10.1021/acs.jmedchem.7b00606 (Griffith University, 2017).

This assay addresses Carbonic anhydrase 2 (Homo sapiens, UniProt P00918). The assay is described as follows: Binding affinity to human carbonic anhydrase 2 by surface plasmon resonance spectrometry.

`O=c1[nH]c(O)c(-c2ccccc2)[nH]1` [5-Phenyl-imidazolidine-2,4-dione] yielded a Kd above 2000 µM.
